According to article PMC6934184, “Selective DNA-PKcs inhibition extends the therapeutic index of localized radiotherapy and chemotherapy” (The Journal of Clinical Investigation, 2019):

Target: T1, CSNK1E (CK1 epsilon) (Homo sapiens, UniProt P49674)
T1 construct: purchased Thermo Fisher Scientific (Life Technologies) SelectScreen
Test: SelectScreen Z'LYTE
Assay type: biochemical
In short: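 NU5455 was profiled across the SelectScreen Broad panel of kinase activity and binding assays. Z'LYTE reactions such as CSF1R ran at apparent Km ATP, while the Adapta CAMK1 assay used ATP listed as 10. Values are given as percent.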

T1 sequence (P49674 whole entry): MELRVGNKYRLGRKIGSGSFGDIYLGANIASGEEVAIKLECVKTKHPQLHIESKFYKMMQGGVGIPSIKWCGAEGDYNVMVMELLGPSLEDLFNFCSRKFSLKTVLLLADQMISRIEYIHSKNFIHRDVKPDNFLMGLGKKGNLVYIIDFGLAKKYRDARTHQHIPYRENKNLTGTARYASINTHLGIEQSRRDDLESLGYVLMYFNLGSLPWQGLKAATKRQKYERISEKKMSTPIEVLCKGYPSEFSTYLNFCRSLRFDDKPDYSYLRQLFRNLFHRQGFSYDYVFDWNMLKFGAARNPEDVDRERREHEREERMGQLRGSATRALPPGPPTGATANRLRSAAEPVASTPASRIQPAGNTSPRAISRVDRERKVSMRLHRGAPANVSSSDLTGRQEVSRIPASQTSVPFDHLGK

## CN(C(=O)CN1CCOCC1)c1ccc2sc3c(-c4cccc5c(=O)cc(N6CC7CCC(C6)O7)oc45)cccc3c2c1 [NU5455]
  inhibition at 1 µM: -10.9%
